This note sets out measurements from US20220023381A1, “VDAC INHIBITORS FOR TREATING AUTOIMMUNE DISEASES” (NATIONAL INSTITUTE FOR BIOTECHNOLOGY IN THE NEGEV LTD., priority 2018, published 2022).

One experiment has as its system human PBMCs. In words: A23187-induced mitochondrial ROS (MitoSOX). Type of experiment: cell-based. The note with it: VBIT-4 (5 μM), A23187 (25 μM), 1 h. How it is done:
Cellular cGAMP levels were measured by LC/MS (Agilent Technologies) using 5% perchloric acid extracts of WT and EndoG^−/− MEFs. Intracellular ROS production in MEFs was measured using the oxidative stress indicator CM-H2DCFDA (Invitrogen) with flow cytometry (FACS). Mitochondrial ROS in MEFs was evaluated using the mitochondrial superoxide indicator MitoSOX (Invitrogen) with a confocal microscope (LSM880, Zeiss, and the fluorescence intensity was measured using Zen software (Zeiss). To quantify mitochondrial ROS in human PBMCs, the cells were obtained from heparinized blood using a Ficoll-Paque gradient. The cells were washed with PBS, resuspended in RPMI 1640 medium, and transferred to 96-well plates. Subsequently, the cells were stimulated with calcium ionophore A23187 (25 μM), VBIT-4 (5 μM), and MitoSOX (2 μM) (Life Technologies). After 1 h at 37° C., the fluorescence was measured at 510/595 nm using a microplate reader (Synergy HTX; BIOTEK). Cells without dye were used as the blank control.

In experiment [1] the test system is EndoG−/− MEFs. The experiment is described as follows: Quantification of cytosolic mtDNA (cmtDNA) in EndoG−/− MEFs. It is filed as cell-based, mouse. The following applies: VBIT-4 (10 μM), real-time PCR. The protocol:
MEFs were resuspended in 170 μl digitonin buffer containing 150 mM NaCl, 50 mM HEPES pH 7.4, and 25 μg/ml digitonin (EMD Millipore Corp). The homogenates were incubated on a rotator for 10 min at room temperature, followed by centrifugation at 16,000 g for 25 min at 4° C. A 1:20 dilution of the supernatant (cmtDNA) was used for real-time RT-PCR. The pellet was resuspended in 340 μl lysis buffer containing 5 mM EDTA and proteinase K (Qiagen) and incubated at 55° C. overnight. The digested pellet was diluted with water (1:20 to 1:100) and heated at 95° C. for 20 min to inactivate proteinase K, and the sample was used for real-time PCR. The primers used were as follow (5′-3′): D-loop1 forward (SEQ ID NO:64), and reverse (SEQ ID NO:65); D-loop2 forward (SEQ ID NO:66), and reverse (SEQ ID NO:67); D-loop3 forward (SEQ ID NO:68), and reverse (SEQ ID NO:69). The cmtDNA in the supernatant was normalized to the total mitochondrial DNA in the pellet for each sample.

Experiment [2] concerns the target T1, VDAC1 (Rattus norvegicus, UniProt Q9Z2L0).
T1 construct: from tissue; host or cells: rat liver mitochondria (inferred)
In words: Micro-scale thermophoresis (MST) interaction with VDAC1. It is filed as binding. The note with it: without prior exposure to high voltage.

Experiment [3] deals with low-density granulocytes (LDG) and normal-density granulocytes (NDG). In words: NET formation (NETosis) in granulocytes. It is filed as cell-based, human. How it is done: Normal-density granulocytes (NDGs) were isolated from heparinized venous blood using a Ficoll-Paque gradient (GE Healthcare) with dextran (Sigma-Aldrich) sedimentation, followed by red blood cell lysis using hypotonic NaCl. From the PBMC layer, low-density granulocytes (LDGs) were isolated using a negative selection method. The cells were resuspended in RPMI 1640 medium for further characterization. NETs were induced in NDGs by incubating cells with calcium ionophore A23187 (25 μM) (Thermo Fisher) in RPMI 1640 medium for 2 h, and NETs were quantified using SYTOX fluorescent dye at 485/520 nm to quantify extracellular DNA. The fluorescence of PicoGreen (Life Technologies) at t=0 min was measured at 485/520 nm […] to quantify the total DNA. The fluorescence was quantified using a microplate reader (Synergy HTX; BIOTEK). NETs were also quantified by fluorescence microscopy. Briefly, the cells were attached to coverslip chambers, stimulated for 90 min at 37° C. with calcium ionophore, fixed with 4% paraformaldehyde overnight at 4° C., and permeabilized with 0.2% Triton X-100 for 10 min, followed by 0.5% gelatin for 20 min. The cells were stained with antibodies against human neutrophil elastase (ab21595, Abcam) for 2 h at room temperature, washed in PBS, and stained with Hoechst 33342 (Life Technologies) and Alexa Fluor 488 secondary antibody (A31570, Life Technologies) for 2 h at room temperature. After mounting, the cells were visualized with a LSM780 confocal microscope.

The test system of another experiment is PTP. In words: Mitochondrial swelling assay (PTP opening). The note with it: purified mitochondria, Ca2+-induced swelling. How it is done:
(§1) The PTP opening was analyzed following mitochondria swelling. Briefly, freshly isolated mitochondria (0.5 mg/ml) were incubated for 2 min at 24° C. with the indicated concentrations of VBIT-4 for Ca^2+-induced mitochondrial swelling assay. Swelling was initiated by the addition of Ca^2+ (0.1 mM) to the sample cuvette. Absorbance changes at 520 nm were monitored every 16 s for 15 min. Cyclosporine A 10 μM) was used as a positive control. […] Ca^2+ accumulation by freshly isolated rat liver mitochondria (0.5 mg/ml) was assayed with the indicated concentrations of VBIT-4 in the presence of […] CaCl2) (containing [^45Ca^2+]), 220 mM mannitol, 70 mM sucrose, 5 mM succinate, 0.15 mM Pi and 15 mM Tris/HCl, pH 7.2. Ca^2+ uptake was terminated by rapid Millipore filtration (0.45 μm).

For the next experiment, the system named is rat liver mitochondria. In words: Ca2+ accumulation by isolated mitochondria. The following applies: purified mitochondria. How it is done: as §1
Experiment [4] has as its target T1, VDAC1. The experiment is described as follows: mtDNA efflux from liposomes reconstituted with VDAC1. Type of experiment: biochemical. The following applies: VDAC1-containing mtDNA-loaded liposomes.
Experiment [5] deals with EndoG−/− MEFs. The experiment is described as follows: ISG expression in EndoG−/− MEFs (real-time PCR / western blot). It is filed as cell-based, mouse. The following applies: VBIT-4 (10 μM), real-time PCR. In general terms: In qPCR the cycle at which signal appears reflects the starting amount.
Method: All MEFs were grown in complete Dulbecco's modified Eagle's medium (DMEM, Corning) supplemented with 10% fetal bovine serum (FBS, Sigma-Aldrich) and 1% penicillin and streptomycin (antibiotics, Gibco) at 37° C. with 5% CO2.
Total RNA was extracted using RNeasy Plus Mini Kit (Qiagen) according to the manufacturer's instructions. The first-strand cDNA was synthesized from 2 μg purified mRNA using Accupower RT PreMix (BioNeer). The reaction mixtures were incubated at 42° C. for 60 min and 94° C. for 5 min. Real-time RT-PCR was performed using the LightCycler 96 system (Roche Life Science) with SYBR Green master mix (Roche). The primers used were as follow (5′-3′): EndoG forward (SEQ ID NO:36), and reverse (SEQ ID NO:37); Cxcl10 forward (SEQ ID NO:38), and reverse (SEQ ID NO:39); GAPDH forward (SEQ ID NO:40), and reverse (SEQ ID NO:41); Ifi44 forward (SEQ ID NO:42), and reverse (SEQ ID NO:43); Ifit1 forward (SEQ ID NO:44), and reverse (SEQ ID NO:45); Ifit3 forward (SEQ ID NO:46), and reverse (SEQ ID NO:47); IFNα4 forward (SEQ ID NO:48), and reverse (SEQ ID NO:49); IFNβ forward (SEQ ID NO:50), and reverse (SEQ ID NO:51); Iigp1 forward (SEQ ID NO:52), and reverse (SEQ ID NO:53); ISG15 forward (SEQ ID NO:54), and reverse (SEQ ID NO:55); Oasl2 forward (SEQ ID NO:56), and reverse (SEQ ID NO:57); Rsad2 forward (SEQ ID NO:58), and reverse (SEQ ID NO:59); USP18 forward (SEQ ID NO:60), and reverse (SEQ ID NO:61); VDAC1 forward (SEQ ID NO:62), and reverse (SEQ ID NO:63). GAPDH was used as an internal standard of mRNA expression, and the ratio of the target gene expression to GAPDH expression was calculated using LightCycler 96 Instrument software (Roche). The quality of real-time RT-PCR results was evaluated based on the melting temperature (Tm) of a DNA fragment and melting curve analysis.

T1 sequence (Q9Z2L0 whole entry): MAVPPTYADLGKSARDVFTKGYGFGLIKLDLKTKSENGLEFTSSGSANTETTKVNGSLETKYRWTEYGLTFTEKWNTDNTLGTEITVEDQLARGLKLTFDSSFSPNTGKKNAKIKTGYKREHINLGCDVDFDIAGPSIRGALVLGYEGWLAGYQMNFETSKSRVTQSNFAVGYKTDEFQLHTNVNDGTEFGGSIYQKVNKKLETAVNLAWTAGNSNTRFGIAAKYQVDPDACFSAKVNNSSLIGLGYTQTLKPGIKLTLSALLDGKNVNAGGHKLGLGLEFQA

With `O=C(CC(CO)N1CCN(c2ccc(OC(F)(F)F)cc2)CC1)Nc1ccc(Cl)cc1` (stereo not drawn) [VBIT-4, N-(4-chlorophenyl)-4-hydroxy-3-(4-(4-(trifluoromethoxy)phenyl)-piperazin-1-yl)butanamide], the “A23187-induced mitochondrial ROS” value in the experiment on human PBMCs (healthy controls) and in the experiment with human PBMCs (lupus patients) was “decreased” each time. The cmtDNA entry in the experiment with EndoG−/− MEFs [1] is “decreased”. Moreover, the “interaction with VDAC1 measured by MST” value on VDAC1 [2] is “did show interaction”. Moreover, the NETosis result in experiment [3] (LDG from lupus patients, spontaneous NET formation, VBIT-4 (5 μM), microscopy) was “strongly inhibited”; in experiment [3] (NDG from healthy controls, SYTOX-PicoGreen plate assay) it was “strongly inhibited”; in experiment [3] (NDG from lupus patients, A23187-stimulated, microscopy), “strongly inhibited”; in experiment [3] (NDG from lupus patients, SYTOX-PicoGreen plate assay) it was “strongly inhibited”. The PTP opening entry in the experiment on PTP is reported as “did not prevent”. The “Ca2+ uptake” value in the experiment on rat liver mitochondria is recorded as “did not prevent”. Moreover, the “mtDNA release from liposomes” value at VDAC1 [4] is “decreased”. Further, in the experiment with EndoG−/− MEFs [5], the ISG expression result is “decreased”.
